Test results taken from patent USRE49687E1, “Thienopyrimidine and thienopyridine compounds and methods of use thereof” (The Regents of The University of Michigan, priority 2014, dated 2023).
Values joined by “and” are separate entries in the source; they are usually repeats but may differ in a detail not shown here. Equal values may be shown once.

The compounds below were run against T1, menin-MLL interaction (Homo sapiens, UniProt O00255) (assay: Fluorescence polarization (FP) competition assay of the menin-MLL interaction). Settings: inhibition of the menin-MLL interaction; read-out: IC50 values for Table 1 inhibitors of menin.
T1 sequence (O00255 1-610): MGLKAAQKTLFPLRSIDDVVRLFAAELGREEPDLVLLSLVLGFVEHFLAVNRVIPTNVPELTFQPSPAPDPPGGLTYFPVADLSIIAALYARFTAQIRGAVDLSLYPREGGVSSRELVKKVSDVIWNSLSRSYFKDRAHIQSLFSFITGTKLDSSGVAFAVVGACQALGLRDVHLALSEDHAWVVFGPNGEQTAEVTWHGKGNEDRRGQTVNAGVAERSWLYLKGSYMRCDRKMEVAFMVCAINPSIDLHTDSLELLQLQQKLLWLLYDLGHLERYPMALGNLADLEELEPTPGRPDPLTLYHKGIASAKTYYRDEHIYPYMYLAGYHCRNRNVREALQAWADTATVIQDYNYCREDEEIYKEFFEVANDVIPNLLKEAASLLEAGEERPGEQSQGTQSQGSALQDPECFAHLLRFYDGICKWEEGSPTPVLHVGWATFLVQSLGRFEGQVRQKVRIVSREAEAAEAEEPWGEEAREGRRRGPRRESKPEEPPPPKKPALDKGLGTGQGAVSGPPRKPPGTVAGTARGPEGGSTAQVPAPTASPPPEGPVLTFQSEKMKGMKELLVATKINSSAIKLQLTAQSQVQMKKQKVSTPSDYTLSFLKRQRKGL
Type: binding

Row | IC50 | SMILES
1 | < 30 nM and 30 to 100 nM | C=CS(=O)(=O)N1CC2CCC(C1)N2CCn1c(C#N)cc2c(C)c(CN3CCC(Nc4ncnc5sc(CC(F)(F)F)cc45)CC3)ccc21 [Compound 18]
2 | 30 to 100 nM | C#CC(=O)N1CCN(CCn2c(C#N)cc3c(C)c(CN4CCC(Nc5ncnc6sc(CC(F)(F)F)cc56)CC4)ccc32)CC1 [Compound 5]
3 | < 30 nM | C=CC(=O)N1CC2(CCN(CCn3c(C#N)cc4c(C)c(CN5CCC(Nc6ncnc7sc(CC(F)(F)F)cc67)CC5)ccc43)CC2)C1 [Compound 184]
4 | < 30 nM | C=CC(=O)NCCC(O)(CO)Cn1c(C#N)cc2c(C)c(CN3CCC(Nc4ncnc5sc(CC(F)(F)F)cc45)CC3)ccc21 (stereo not drawn) [Compound 11]
5 | 30 to 100 nM | [2H]C([2H])=C([2H])C(=O)Nc1ccc(CCn2c(C#N)cc3c(C)c(CN4CCC(Nc5ncnc6sc(CC(F)(F)F)cc56)CC4)ccc32)cc1 [Compound 241]
6 | 30 to 100 nM | C=CC(=O)Nc1ccc(CCn2c(C#N)cc3c(C)c(CN4CCC(Nc5ncnc6sc(CC(F)(F)F)cc56)CC4)ccc32)cc1C#N [Compound 194]
7 | < 30 nM | Cc1c(CN2CCC(Nc3ncnc4sc(CC(F)(F)F)cc34)CC2)ccc2c1cc(C#N)n2CCN1CCC(NC(=O)/C=C/CN(C)C)CC1 [Compound 27]
8 | < 30 nM | C=CS(=O)(=O)N1CCN(CCn2c(C#N)cc3c(C)c(CN4CCC(Nc5ncnc6sc(CC(F)(F)F)cc56)CC4)ccc32)C[C@@H]1C [Compound 230]
9 | < 30 nM | C=CC(=O)Nc1ccc(CCn2c(C#N)cc3c(C)c(CN4CCC(Nc5ncnc6sc(CC(F)(F)F)cc56)CC4)ccc32)cc1P(=O)(CC)CC [Compound 203]
10 | 30 to 100 nM | C=CC(=O)N1CCN(CCn2c(C#N)cc3cc(CN4CCC(Nc5ccnc6sc(CC(F)(F)F)cc56)CC4)ccc32)CC1 [Compound 1]
11 | < 30 nM | CCC(=O)Nc1ccc(CCn2c(C#N)cc3c(C)c(CN4CCC(Nc5ncnc6sc(CC(F)(F)F)cc56)CC4)ccc32)cc1 [Compound 102]
12 | < 30 nM | C=CS(=O)(=O)NC1CCN(CCn2c(C#N)cc3c(C)c(CN4CCC(Nc5ncnc6sc(CC(F)(F)F)cc56)CC4)ccc32)CC1 [Compound 232]
13 | 30 to 100 nM | C=CC(=O)NN1CCN(CCn2c(C#N)cc3c(C)c(CN4CCC(Nc5ncnc6sc(CC(F)(F)F)cc56)CC4)ccc32)CC1 [Compound 94]
14 | 30 to 100 nM | Cc1c(CN2CCC(Nc3ncnc4sc(CC(F)(F)F)cc34)CC2)ccc2c1cc(C#N)n2CCc1cccc(N)c1 [Compound 189]
15 | < 30 nM | C=CC(=O)Nc1ccc(CCn2c(C#N)cc3c(C)c(CN4CCC(Nc5ncnc6sc(CC(F)(F)F)cc56)CC4)ccc32)cc1 [Compound 81, N-(4-(2-(2-cyano-4-methyl-5-((4-(6-(2,2,2-trifluoroethyl)thieno[2,3-d]pyrimidin-4-ylamino)piperidin-1-yl)methyl)-1H-indol-1-yl)ethyl)phenyl)acrylamide]
16 | < 30 nM | C=CC(=O)N1CC2CCC(C1)N2CCn1c(C#N)cc2c(C)c(CN3CCC(Nc4ncnc5sc(CC(F)(F)F)cc45)CC3)ccc21 [Compound 229]
17 | 30 to 100 nM | C=CC(=O)NC1CCC(Cn2c(C#N)cc3c(C)c(CN4CCC(Nc5ncnc6sc(CC(F)(F)F)cc56)CC4)ccc32)C1 (stereo not drawn) [Compound 219]
18 | 100 to 1000 nM | Cc1c(CN2CCC(Nc3ncnc4sc(CC(F)(F)F)cc34)CC2)ccc2c1cc(C#N)n2CCc1ccc(N)c(C#N)c1 [Compound 193]
19 | 30 to 100 nM | Cc1c(CN2CCC(Nc3ncnc4sc(CC(F)(F)F)cc34)CC2)ccc2c1cc(C#N)n2CCc1cccc(P(C)(C)=O)c1 [Compound 204]
20 | 30 to 100 nM | C=CC(=O)NC1CN(CCn2c(C#N)cc3c(C)c(CN4CCC(Nc5ncnc6sc(CC(F)(F)F)cc56)CC4)ccc32)C1 [Compound 28]
21 | 100 to 1000 nM | CCC(=O)N1CCC(C(O)Cn2c(C#N)cc3c(C)c(CN4CCC(Nc5ncnc6sc(CC(F)(F)F)cc56)CC4)ccc32)CC1 (stereo not drawn) [Compound 211]
22 | 30 to 100 nM | Cc1c(CN2CCC(Nc3ncnc4sc(CC(F)(F)F)cc34)CC2)ccc2c1cc(C#N)n2CCc1ccc(N)c(S(C)(=O)=O)c1 [Compound 104]
23 | < 30 nM | C=CC(=O)Nc1ccc(CCn2c(C#N)cc3c(C)c(CN4CCC(Nc5ncnc6sc(CC(F)(F)F)cc56)CC4)ccc32)cc1S(C)(=O)=O [Compound 105]
24 | 30 to 100 nM | C=CC(=O)Nc1ccc(C(C)(O)Cn2c(C#N)cc3c(C)c(CN4CCC(Nc5ncnc6sc(CC(F)(F)F)cc56)CC4)ccc32)cn1 (stereo not drawn) [Compound 209]
25 | < 30 nM | C=CC(=O)N1CCCN(CCn2c(C#N)cc3c(C)c(CN4CCC(Nc5ncnc6sc(CC(F)(F)F)cc56)CC4)ccc32)CC1 [Compound 66]
26 | 100 to 1000 nM | C=CC(=O)Nc1ccc(CCn2c(C#N)cc3c(C)c(CN4CCC(Nc5ncnc6sc(CC(F)(F)F)cc56)CC4)ccc32)cc1P(=O)(C(C)C)C(C)C [Compound 206]

Row | IC50 | SMILES
27 | 30 to 100 nM | C/C=C/C(=O)Nc1ccc(CCn2c(C#N)cc3c(C)c(CN4CCC(Nc5ncnc6sc(CC(F)(F)F)cc56)CC4)ccc32)cn1 [Compound 106]
28 | < 30 nM | C=CC(=O)Nc1ccc(CCn2c(C#N)cc3c(C)c(CN4CCC(Nc5ncnc6sc(CC(F)(F)F)cc56)CC4)ccc32)cc1P(C)(C)=O [Compound 199]
29 | < 30 nM | C=CC(=O)Nc1ccc(C(O)Cn2c(C#N)cc3c(C)c(CN4CCC(Nc5ncnc6sc(CC(F)(F)F)cc56)CC4)ccc32)cc1 (stereo not drawn) [Compound 101]
30 | < 30 nM | C=CC(=O)N[C@@H]1CCN(CCn2c(C#N)cc3c(C)c(CN4CCC(Nc5ncnc6sc(CC(F)(F)F)cc56)CC4)ccc32)C1 [Compound 32]
31 | < 30 nM | C/C=C/S(=O)(=O)N1CCN(CCn2c(C#N)cc3c(C)c(CN4CCC(Nc5ncnc6sc(CC(F)(F)F)cc56)CC4)ccc32)CC1 [Compound 7]
32 | 100 to 1000 nM | C=CC(=O)Nc1cn(CCn2c(C#N)cc3c(C)c(CN4CCC(Nc5ncnc6sc(CC(F)(F)F)cc56)CC4)ccc32)cn1 [Compound 192]
33 | 30 to 100 nM | CCC(=O)Nc1ccc(C(C)(O)Cn2c(C#N)cc3c(C)c(CN4CCC(Nc5ncnc6sc(CC(F)(F)F)cc56)CC4)ccc32)cn1 (stereo not drawn) [Compound 212]
34 | < 30 nM | C=CS(=O)(=O)Nc1ccc(CCn2c(C#N)cc3c(C)c(CN4CCC(Nc5ncnc6sc(CC(F)(F)F)cc56)CC4)ccc32)cc1 [Compound 231]
35 | < 30 nM | C=CS(=O)(=O)N1C2CCC1CN(CCn1c(C#N)cc3c(C)c(CN4CCC(Nc5ncnc6sc(CC(F)(F)F)cc56)CC4)ccc31)C2 [Compound 23]
36 | 30 to 100 nM | C=CC(=O)Nc1ccc([C@](C)(O)Cn2c(C#N)cc3c(C)c(CN4CCC(Nc5ncnc6sc(CC(F)(F)F)cc56)CC4)ccc32)cc1 [Compound 243]
37 | 30 to 100 nM | C=CC(=O)N1CCC2(CCN(CCn3c(C#N)cc4c(C)c(CN5CCC(Nc6ncnc7sc(CC(F)(F)F)cc67)CC5)ccc43)C2)C1 (stereo not drawn) [Compound 172]
38 | < 30 nM | C=CC(=O)NC1CCN(CCn2c(C#N)cc3c(C)c(CN4CCC(Nc5ncnc6sc(CC(F)(F)F)cc56)CC4)ccc32)C1 (stereo not drawn) [Compound 29]
39 | < 30 nM | Cc1c(CN2CCC(Nc3ncnc4sc(CC(F)(F)F)cc34)CC2)ccc2c1cc(C#N)n2CCN1CCN(C(=O)/C=C/CN(C)C)CC1 [Compound 6]
40 | 30 to 100 nM | C=CC(=O)Nc1ccc(C(C)(O)Cn2c(C#N)cc3c(C)c(CN4CCC(Nc5ncnc6sc(CC(F)(F)F)cc56)CC4)ccc32)cc1 (stereo not drawn) [Compound 115]
41 | 30 to 100 nM | C=CC(=O)N1CCN(CCCn2c(C#N)cc3cc(CN4CCC(Nc5ncnc6sc(CC(F)(F)F)cc56)CC4)ccc32)CC1 [Compound 2]
42 | 30 to 100 nM | Cc1c(CN2CCC(Nc3ncnc4sc(CC(F)(F)F)cc34)CC2)ccc2c1cc(C#N)n2CCN1CCC2(CCNC2)C1 (stereo not drawn) [Compound 171]
43 | 30 to 100 nM | C=CC(=O)NC1CCN(CCn2c(C#N)cc3c(C)c(CN4CCC(Nc5ncnc6sc(CC(F)(F)F)cc56)CC4)ccc32)CC1 [Compound 25]
44 | 100 to 1000 nM | C=CC(=O)Nc1ccc(C2(Cn3c(C#N)cc4c(C)c(CN5CCC(Nc6ncnc7sc(CC(F)(F)F)cc67)CC5)ccc43)CC2)cn1 [Compound 216]
45 | > 1000 nM | CP(C)(=O)c1cc2cc(CN3CCC(Nc4ncnc5sc(CC(F)(F)F)cc45)CC3)ccc2[nH]1 [Compound 205]
46 | < 30 nM | Cc1c(CN2CCC(Nc3ncnc4sc(CC(F)(F)F)cc34)CC2)ccc2c1cc(C#N)n2CCN1CC2CNCC2C1 (stereo not drawn) [Compound 167]
47 | 100 to 1000 nM | CCC(=O)Nc1ccc(CCn2c(C#N)cc3c(C)c(CN4CCC(Nc5ncnc6sc(CC(F)(F)F)cc56)CC4)ccc32)cn1 [Compound 254]
48 | < 30 nM | C/C=C/C(=O)N1CCN(CCn2c(C#N)cc3c(C)c(CN4CCC(Nc5ncnc6sc(CC(F)(F)F)cc56)CC4)ccc32)CC1 [Compound 4]
49 | 30 to 100 nM | C=CC(=O)N1CCC2(CN(CCn3c(C#N)cc4c(C)c(CN5CCC(Nc6ncnc7sc(CC(F)(F)F)cc67)CC5)ccc43)C2)C1 [Compound 176]
50 | 100 to 1000 nM | Cc1c(CN2CCC(Nc3ncnc4sc(CC(F)(F)F)cc34)CC2)ccc2c1cc(C#N)n2CCP(C)(C)=O [Compound 218]
51 | 100 to 1000 nM | C=CC(=O)Nc1cccc(CCn2c(C#N)cc3c(C)c(CN4CCC(Nc5ncnc6sc(CC(F)(F)F)cc56)CC4)ccc32)c1 [Compound 190]
